Measurements reported in US8431593B2, “Heteroaryl amide derivatives” (H. Lundbeck A/S, priority 2006, dated 2013).

Molecular target: T1, P2X7 receptor (Homo sapiens, UniProt Q99572)
T1 construct: host or cells: SH-SY5Y
T1 sequence (Q99572 1-595): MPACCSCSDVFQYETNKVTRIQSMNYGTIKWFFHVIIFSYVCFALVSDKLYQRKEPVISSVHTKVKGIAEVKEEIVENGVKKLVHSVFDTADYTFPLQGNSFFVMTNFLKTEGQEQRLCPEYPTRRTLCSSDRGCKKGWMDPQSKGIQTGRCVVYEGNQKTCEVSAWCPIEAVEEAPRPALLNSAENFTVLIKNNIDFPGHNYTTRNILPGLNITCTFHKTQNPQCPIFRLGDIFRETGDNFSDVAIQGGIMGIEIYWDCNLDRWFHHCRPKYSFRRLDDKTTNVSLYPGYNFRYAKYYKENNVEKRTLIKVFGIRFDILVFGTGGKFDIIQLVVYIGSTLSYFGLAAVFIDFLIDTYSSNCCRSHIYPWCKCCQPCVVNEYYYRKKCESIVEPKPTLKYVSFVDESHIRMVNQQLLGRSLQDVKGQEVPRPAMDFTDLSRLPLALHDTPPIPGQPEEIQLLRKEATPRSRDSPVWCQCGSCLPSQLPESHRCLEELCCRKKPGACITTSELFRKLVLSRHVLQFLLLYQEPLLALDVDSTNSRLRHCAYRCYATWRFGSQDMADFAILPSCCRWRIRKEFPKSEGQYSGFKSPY
Experiment: P2X7 calcium mobilization assay, high throughput, antagonist activity (Example 4A)
Type: cell-based
Conditions: 50% decrease in the fluorescence response of cells exposed to 80 μM of 2′(3′)-O-(4-benzoyl-benzoyl)adenosine 5′-triphosphate; determined as in Example 4A; read-out: IC50
Procedure, shortened: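 Cells plated at 100,000/well the day before were dye-loaded for 1 h, then incubated 1 h at room temperature with test compound before agonist-triggered calcium mobilization was read on FLIPR Tetra. Maximum RFU was corrected by subtracting the no-agonist control and related to the agonist-control response.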

SMILES | IC50
O=C(NCC1(c2ccc(Cl)cc2)CCCCC1)c1cccc2nc(C(Cc3ccccn3)C(=O)O)cn12 (stereo not shown) [Compound 937, 2-[5-({[1-(4-chlorophenyl)cyclohexyl]methyl}carbamoyl)imidazo[1,2-a]pyridin-2-yl]-3-pyridin-2-ylpropanoic acid] | < 2000 nM
CC(C)CC(CNC(=O)c1cccc2nc(C(Cc3ccccn3)C(=O)O)cn12)c1ccc(Cl)cc1 (stereo not shown) [Compound 938, 2-(5-{[2-(4-chlorophenyl)-4-methylpentyl]carbamoyl}imidazo[1,2-a]pyridin-2-yl)-3-pyridin-2-ylpropanoic acid] | < 2000 nM
CC(C)CC(CNC(=O)c1cccc2nc(C(Cc3ccccc3)C(=O)O)cn12)c1ccc(Cl)cc1 (stereo not shown) [Compound 939, 2-(5-{[2-(4-chlorophenyl)-4-methylpentyl]carbamoyl}imidazo[1,2-a]pyridin-2-yl)-3-phenylpropanoic acid] | < 2000 nM
CC(C)CC(CNC(=O)c1cccc2nc(C(Cc3ccc(Cl)cc3)C(=O)O)cn12)c1ccc(Cl)cc1 (stereo not shown) [Compound 940, 3-(4-chlorophenyl)-2-(5-{[2-(4-chlorophenyl)-4-methylpentyl]carbamoyl}imidazo[1,2-a]pyridin-2-yl) propanoic acid] | < 2000 nM
O=C(O)CCc1cn2c(C(=O)NCC3(c4ccc(C(F)(F)F)cc4)CCCCC3)cccc2n1 [Compound 941, 3-{5-[({1-[4-(trifluoromethyl)phenyl]cyclohexyl}methyl)carbamoyl]imidazo [1,2-a]pyridin-2-yl}propanoic acid] | < 2000 nM
CC(C)CC(CNC(=O)c1cccc2nc(CN3CC[C@@H](O)C3)cn12)c1ccc(Cl)cc1 (stereo partly drawn) [Compound 942, N-[2-(4-chlorophenyl)-4-methylpentyl]-2-{[(3R)-3-hydroxypyrrolidin-1-yl]methyl} imidazo[1,2-a]pyridine-5-carboxamide] | < 2000 nM
CC(C)CC(CNC(=O)c1cccc2nc(CN(C)CCO)cn12)c1ccc(Cl)cc1 (stereo not shown) [Compound 943, N-[2-(4-chlorophenyl)-4-methylpentyl]-2-{[(2-hydroxyethyl)(methyl)amino]methyl}imidazo [1,2-a]pyridine-5-carboxamide] | < 2000 nM
CCOC(=O)C1(c2cn3c(C(=O)NCC45CC6CC(CC(C6)C4)C5)cccc3n2)CCOCC1 [Compound 944, ethyl 4-{5-[(adamantan-1-ylmethyl)carbamoyl]imidazo[1,2-a]pyridin-2-yl}tetrahydro-2H-pyran-4-carboxylate] | < 2000 nM
O=C(NCC12CC3CC(CC(C3)C1)C2)c1cccc2nc(C3(C(=O)O)CCOCC3)cn12 [Compound 945, 4-{5-[(adamantan-1-ylmethyl)carbamoyl]imidazo[1,2-a]pyridin-2-yl}tetrahydro-2H-pyran-4-carboxylic acid] | < 2000 nM
CC(C)CC(CNC(=O)c1cccc2nc(CC(=O)N3CCC[C@@H](N)C3)cn12)c1cccnc1 (stereo partly drawn) [Compound 946, 2-{2-[(3R)-3-aminopiperidin-1-yl]-2-oxoethyl}-N-(4-methyl-2-pyridin-3-ylpentyl) imidazo[1,2-a]pyridine-5-carboxamide] | < 2000 nM
N[C@@H]1CCCN(C(=O)Cc2cn3c(C(=O)NCC4(c5cccnc5)CCCCC4)cccc3n2)C1 [Compound 947, 2-{2-[(3R)-3-aminopiperidin-1-yl]-2-oxoethyl}-N-[(1-pyridin-3-ylcyclohexyl)methyl] imidazo[1,2-a] pyridine-5-carboxamide] | < 2000 nM
Cc1ccc(C2(CNC(=O)c3cccc4nc(CC(=O)N5CCC[C@@H](N)C5)cn34)CCCCC2)cn1 [Compound 948, 2-{2-[(3R)-3-amino-piperidin-1-yl]-2-oxoethyl}-N-{[1-(6-methylpyridin-3-yl)cyclohexyl]methyl} imidazo[1,2-a] pyridine-5-carboxamide] | < 2000 nM

Continued, values first:

IC50 | SMILES
< 2000 nM | O=C(NCC1(c2ccc(C(F)(F)F)cc2)CCCCC1)c1cccc2nc(Cn3nnc(CCO)n3)cn12 [Compound 920, 2-{[5-(2-hydroxyethyl)-2H-tetrazol-2-yl]methyl}-N-({1-[4-(trifluoromethyl)phenyl]cyclohexyl}methyl)imidazo [1,2-a]pyridine-5-carboxamide]
< 2000 nM | O=C(NCC1(c2cccnc2)CCCCC1)c1cccc2nc(Cn3nnc(CCO)n3)cn12 [Compound 921, 2-{[5-(2-hydroxyethyl)-2H-tetrazol-2-yl]methyl}-N-[(1-pyridin-3-ylcyclohexyl)methyl] imidazo[1,2-a] pyridine-5-carboxamide]
< 2000 nM | Cc1ccc(C2(CNC(=O)c3cccc4nc(Cn5nnc(CCO)n5)cn34)CCCCC2)cn1 [Compound 922, 2-{[5-(2-hydroxyethyl)-2H-tetrazol-2-yl]methyl}-N-{[1-(6-methylpyridin-3-yl)cyclohexyl]methyl} imidazo[1,2-a] pyridine-5-carboxamide]
< 2000 nM | CC1=NCCN1Cc1cn2c(C(=O)NCC(CC(C)C)c3ccc(Cl)cc3)cccc2n1 (stereo not shown) [Compound 923, N-[2-(4-chlorophenyl)-4-methylpentyl]-2-[(2-methyl-4,5-dihydro-1H-imidazol-1-yl)methyl]imidazo[1,2-a]pyridine-5-carboxamide]
< 2000 nM | CCCC(CNC(=O)c1cccc2nc(CC(=O)N[C@@H]3CCCN(C(=O)OC(C)(C)C)C3)cn12)c1ccc(Cl)cc1 (stereo partly drawn) [Compound 924, tert-butyl (3R)-3-{[(5-{[2-(4-chlorophenyl)pentyl]carbamoyl}imidazo [1,2-a]pyridin-2-yl)acetyl]amino} piperidine-1-carboxylate]
< 2000 nM | CCCC(CNC(=O)c1cccc2nc(CC(=O)N[C@@H]3CCCNC3)cn12)c1ccc(Cl)cc1 (stereo partly drawn) [Compound 925, N-[2-(4-chlorophenyl)pentyl]-2-{2-oxo-2-[(3R)-piperidin-3-ylamino]ethyl} imidazo [1,2-a]pyridine-5-carboxamide]
< 2000 nM | O=C(Cc1cn2c(C(=O)NCC3(c4ccc(Cl)cc4)CCOCC3)cccc2n1)N[C@@H]1CCCNC1 [Compound 926, N-{[4-(4-chlorophenyl)tetrahydro-2H-pyran-4-yl]methyl}-2-{2-oxo-2-[(3R)-piperidin-3-ylamino]ethyl}imidazo [1,2-a]pyridine-5-carboxamide]
< 2000 nM | CC(C)CC(CNC(=O)c1cccc2nc(CC(=O)N3CCC[C@@H](NC(=O)OC(C)(C)C)C3)cn12)c1ccc(Cl)cc1 (stereo partly drawn) [Compound 928, tert-butyl {(3R)-1-[(5-{[2-(4-chlorophenyl)-4-methylpentyl]carbamoyl}imidazo[1,2-a]pyridin-2-yl)acetyl]piperidin-3-yl}carbamate]
< 2000 nM | CCCC(CNC(=O)c1cccc2nc(CC(=O)N3CCC[C@@H](N)C3)cn12)c1ccc(Cl)cc1 (stereo partly drawn) [Compound 929, 2-{2-[(3R)-3-aminopiperidin-1-yl]-2-oxoethyl}-N-[2-(4-chlorophenyl)pentyl] imidazo[1,2-a] pyridine-5-carboxamide]
< 2000 nM | CCOC(=O)C(Cc1ccccn1)c1cn2c(C(=O)NCC(CC(C)C)c3ccc(Cl)cc3)cccc2n1 (stereo not shown) [Compound 930, ethyl 2-(5-{[2-(4-chlorophenyl)-4-methylpentyl]carbamoyl}imidazo[1,2-a]pyridin-2-yl)-3-pyridin-2-ylpropanoate]
< 2000 nM | CCOC(=O)C(Cc1ccccc1)c1cn2c(C(=O)NCC(CC(C)C)c3ccc(Cl)cc3)cccc2n1 (stereo not shown) [Compound 931, ethyl 2-(5-{[2-(4-chlorophenyl)-4-methylpentyl]carbamoyl}imidazo[1,2-a]pyridin-2-yl)-3-phenylpropanoate]
< 2000 nM | CCOC(=O)C(Cc1ccc(Cl)cc1)c1cn2c(C(=O)NCC(CC(C)C)c3ccc(Cl)cc3)cccc2n1 (stereo not shown) [Compound 932, ethyl 3-(4-chlorophenyl)-2-(5-{[2-(4-chlorophenyl)-4-methylpentyl]carbamoyl}imidazo [1,2-a]pyridin-2-yl)propanoate]
< 2000 nM | CCOC(=O)C(Cc1ccccc1)c1cn2c(C(=O)NCC3(c4ccc(Cl)cc4)CCCCC3)cccc2n1 (stereo not shown) [Compound 933, ethyl 2-[5-({[1-(4-chlorophenyl)cyclohexyl]methyl}carbamoyl)imidazo[1,2-a]pyridin-2-yl]-3-phenylpropanoate]
< 2000 nM | CCOC(=O)C(Cc1ccc(Cl)cc1)c1cn2c(C(=O)NCC3(c4ccc(Cl)cc4)CCCCC3)cccc2n1 (stereo not shown) [Compound 934, ethyl 3-(4-chlorophenyl)-2-[5-({[1-(4-chlorophenyl)cyclohexyl]methyl}carbamoyl)imidazo[1,2-a]pyridin-2-yl]propanoate]
< 2000 nM | O=C(NCC1(c2ccc(Cl)cc2)CCCCC1)c1cccc2nc(C(Cc3ccc(Cl)cc3)C(=O)O)cn12 (stereo not shown) [Compound 935, 3-(4-chlorophenyl)-2-[5-({[1-(4-chlorophenyl)cyclohexyl]methyl}carbamoyl)imidazo[1,2-a]pyridin-2-yl] propanoic acid]
< 2000 nM | O=C(NCC1(c2ccc(Cl)cc2)CCCCC1)c1cccc2nc(C(Cc3ccccc3)C(=O)O)cn12 (stereo not shown) [Compound 936, 2-[5-({[1-(4-chlorophenyl)cyclohexyl]methyl}carbamoyl)imidazo[1,2-a]pyridin-2-yl]-3-phenylpropanoic acid]
